Results: patent US10681909B2, “Herbicidal triazoles” (FMC Corporation, priority 2014, dated 2020)

Experiments:
wheat = assay: Test A preemergence; format: in vivo, Triticum aestivum; conditions: Triticum aestivum, pre-emergence, 240 h, 0 to 100 scale (0 no effect, 100 complete control), read-out: Plant response rating, Wheat; for plant injury at 125 g/ha: 125 g ai/ha; for plant injury at 500 g/ha: 500 g ai/ha, approx. 10 d
How it was run: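 For preemergence, seeds were sown in a loam soil-sand blend and given a directed soil spray of test chemical in a non-phytotoxic solvent mixture with surfactant. For postemergence, plants in pots of the same blend were sprayed with the same formulation at the one- to two-leaf stage, 2 to 10 cm tall.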

oilseed rape = assay: Test D preemergence; format: in vivo, Brassica napus; conditions: scale 0 to 100
Excerpt: (§1) Seeds of plant species selected from bluegrass (annual bluegrass, Poa annua), blackgrass (Alopecurus myosuroides), canarygrass (Phalaris minor), chickweed (common chickweed, Stellaria media), galium (catchweed bedstraw, Galium aparine), bromegrass, down (downy bromegrass, Bromus tectorum), Russian thistle (Salsola kali), field poppy (Papaver rhoeas), field violet (Viola arvensis), foxtail, green (green foxtail, Setaria viridis), deadnettle (henbit deadnettle, Lamium amplexicaule), ryegrass, Ital. (Italian ryegrass, Lolium multiflorum), kochia (Kochia scoparia), lambsquarters (Chenopodium album), oilseed rape (Brassica napus), pigweed (Amaranthus retroflexus), chamomile (scentless chamomile, Matricaria inodora), speedwell (bird's-eye speedwell, Veronica persica), barley, spring (spring barley, Hordeum vulgare), wheat, spring (spring wheat, Triticum aestivum), buckwheat, wild (wild buckwheat, Polygonum convolvulus), wild mustard (Sinapis arvensis), oat, wild (wild oat, Avena fatua), radish, wild (wild radish, Raphanus raphanistrum), […]), barley, winter (winter barley, Hordeum vulgare), and wheat, winter (winter wheat, Triticum aestivum) were planted into a silt loam soil and treated preemergence with test chemicals formulated in a non-phytotoxic solvent mixture which included a surfactant. At the same time, these species were planted in pots containing Sunshine Redi-Earth® planting medium comprising spaghnum peat moss, vermiculite, starter nutrients and dolomitic limestone and treated with postemergence applications of the test chemicals formulated in the same manner. Plants ranged in height from 2 to 18 cm (1- to 4-leaf stage). Treated plants and controls were maintained in a controlled growth environment for 14 to 21 d after which time all species were compared to controls and visually evaluated. […] A dash (-) response means no test result.

field violet = assay: Test D postemergence; format: in vivo, Viola arvensis; conditions: scale 0 to 100
Excerpt: as §1

blackgrass = assay: Test C preemergence; format: in vivo, Alopecurus myosuroides; conditions: for Plant response rating (scale of 0 to 100 where 0 is no effect and 100 is complete control): Blackgrass, preemergence; for Blackgrass plant response rating (0 to 100): Preemergence, visual rating after 13 to 15 d
Excerpt: Seeds of plant species selected from blackgrass (Alopecurus myosuroides), ryegrass, Italian (Italian ryegrass, Lolium multiflorum), wheat (winter wheat, Triticum aestivum), galium (catchweed bedstraw, Galium aparine), corn (Zea mays), crabgrass, large (large crabgrass, Digitaria sanguinalis), foxtail, giant, (giant foxtail, Setaria faberii), johnsongrass (Sorghum halepense), lambsquarters (Chenopodium album), morningglory (Ipomoea coccinea), nutsedge, yellow (yellow nutsedge, Cyperus esculentus), pigweed (Amaranthus retroflexus), ragweed (common ragweed, Ambrosia elatior), soybean (Glycine max), barnyardgrass (Echinochloa crus-galli), oilseed rape (Brassica napus), waterhemp (common waterhemp, Amaranthus rudis), and velvetleaf (Abutilon theophrasti) were planted into a blend of loam soil and sand and treated preemergence with test chemicals formulated in a non-phytotoxic solvent mixture which included a surfactant. At the same time, plants selected from these crop and weed species and also chickweed (common chickweed, Stellaria media), oat, wild (wild oat, Avena fatua), and kochia (Kochia scoparia), were planted in pots containing Sunshine Redi-Earth® planting medium comprising spaghnum peat moss, vermiculite, starter nutrients and dolomitic limestone and treated with postemergence applications of test chemicals formulated in the same manner. Plants ranged in height from 2 to 18 cm (1- to 4-leaf stage) for postemergence treatments. […] A dash (-) response means no test result.

oat, wild = assay: Test D preemergence; format: in vivo, Avena fatua; conditions: scale 0 to 100
Excerpt: as §1

barley, winter = assay: Test D preemergence; format: in vivo, Hordeum vulgare; conditions: scale 0 to 100
Excerpt: as §1

barley, spring = assay: Test D preemergence; format: in vivo, Hordeum vulgare; conditions: scale 0 to 100
Excerpt: as §1

windgrass = assay: Test D preemergence; format: in vivo, Apera spica-venti; conditions: scale 0 to 100
Excerpt: as §1

kochia = assay: Test A preemergence; format: in vivo, Kochia scoparia; conditions: 0 to 100 scale (0 no effect, 100 complete control)
Excerpt: Seeds of plant species selected from barnyardgrass (Echinochloa crus-galli), crabgrass, large (large crabgrass, Digitaria sanguinalis), kochia (Kochia scoparia), ragweed (common ragweed, Ambrosia elatior), foxtail, giant (giant foxtail, Setaria faberii), morningglory (Ipomoea spp.), pigweed (Amaranthus retroflexus), velvetleaf (Abutilon theophrasti), ryegrass, Italian (Italian ryegrass, Lolium multiflorum), wheat (Triticum aestivum), and corn (Zea mays) were planted into a blend of loam soil and sand and treated preemergence with a directed soil spray using test chemicals formulated in a non-phytotoxic solvent mixture which included a surfactant.
At the same time, plants selected from these crop and weed species and also blackgrass (Alopecurus myosuroides), and galium (catchweed bedstraw, Galium aparine), were planted in pots containing the same blend of loam soil and sand and treated with postemergence applications of test chemicals formulated in the same manner. Plants ranged in height from 2 to 10 cm and were in the one- to two-leaf stage for the postemergence treatment. Treated plants and untreated controls were maintained in a greenhouse for approximately 10 d, after which time all treated plants were compared to untreated controls and visually evaluated for injury. Plant response ratings, summarized in Table A, are based on a 0 to 100 scale where 0 is no effect and 100 is complete control. A dash (-) response means no test result.

CCc1nc(-c2ccc(C(F)(F)F)cc2)nn1Cc1ccnc(C(F)(F)F)c1 [Compound 1, 4-[[5-ethyl-3-[4-(trifluoromethyl)phenyl]-1H-1,2,4-triazol-1-yl]methyl]-2-(trifluoromethyl)pyridine]
plant injury at 125 g/ha (wheat): 20%
plant injury at 500 g/ha (wheat): 30%
Plant response rating: Oilseed Rape (oilseed rape; 62 g ai/ha): 100
Plant response rating: Oilseed Rape (oilseed rape; 125 g ai/ha): 100
Plant response rating: Oilseed Rape (oilseed rape; 250 g ai/ha): 100
Plant response rating: Field Violet (field violet; 31 g ai/ha): 100
Plant response rating: Field Violet (field violet; 62 g ai/ha): 100
Plant response rating: Field Violet (field violet; 125 g ai/ha): 100
Plant response rating: Field Violet (field violet; 250 g ai/ha): 100
Plant response rating (scale of 0 to 100 where 0 is no effect and 100 is complete control) (blackgrass; 125 g ai/ha): 80
Plant response rating (scale of 0 to 100 where 0 is no effect and 100 is complete control) (blackgrass; 250 g ai/ha): 85
Blackgrass plant response rating (0 to 100) (blackgrass; 31 g ai/ha): 5
Blackgrass plant response rating (0 to 100) (blackgrass; 62 g ai/ha): 75
Plant response rating: Oat, Wild (oat, wild; 62 g ai/ha): 0
Plant response rating: Oat, Wild (oat, wild; 125 g ai/ha): 15
Plant response rating: Oat, Wild (oat, wild; 250 g ai/ha): 45
Plant response rating: Barley, Winter (barley, winter; 31 g ai/ha): 0
Plant response rating: Barley, Winter (barley, winter; 62 g ai/ha): 5
Plant response rating: Barley, Winter (barley, winter; 125 g ai/ha): 10
Plant response rating: Barley, Winter (barley, winter; 250 g ai/ha): 20
Plant response rating: Barley, Spring (barley, spring; 31 g ai/ha): 0
Plant response rating: Barley, Spring (barley, spring; 62 g ai/ha): 0
Plant response rating: Barley, Spring (barley, spring; 125 g ai/ha): 0
Plant response rating: Barley, Spring (barley, spring; 250 g ai/ha): 5
Plant response rating: Windgrass (windgrass; 62 g ai/ha): 100
Plant response rating: Windgrass (windgrass; 125 g ai/ha): 100
Plant response rating: Windgrass (windgrass; 250 g ai/ha): 100

Cn1nc(-c2ccc(F)cc2)nc1Oc1cccc(C(F)(F)F)c1 [Compound 5, 3-(4-fluorophenyl)-1-methyl-5-[3-(trifluoromethyl)phenoxy]-1H-1,2,4-triazole]
plant injury at 125 g/ha (wheat): 0%
plant injury at 500 g/ha (wheat): 0%

CCCc1nc(-c2ccc(F)cc2)nn1Cc1ccnc(C(F)(F)F)c1 [Compound 6, 4-[[3-(4-fluorophenyl)-5-propyl-1H-1,2,4-triazol-1-yl]methyl]-2-(trifluoromethyl)pyridine]
plant injury at 125 g/ha (wheat): 10%
plant injury at 500 g/ha (wheat): 60%
Plant response rating (scale of 0 to 100 where 0 is no effect and 100 is complete control) (blackgrass; 125 g ai/ha): 95
Plant response rating (scale of 0 to 100 where 0 is no effect and 100 is complete control) (blackgrass; 250 g ai/ha): 95
Blackgrass plant response rating (0 to 100) (blackgrass; 31 g ai/ha): 70
Blackgrass plant response rating (0 to 100) (blackgrass; 62 g ai/ha): 90

CCOc1nc(-c2ccc(F)cc2)nn1Cc1ccnc(C(F)(F)F)c1 [Compound 8, 4-[[5-ethoxy-3-(4-fluorophenyl)-1H-1,2,4-triazol-1-yl]methyl]-2-(trifluoromethyl)pyridine]
plant injury at 125 g/ha (wheat): 80%
plant injury at 500 g/ha (wheat): 100%
Plant response rating: Oilseed Rape (oilseed rape; 62 g ai/ha): 60
Plant response rating: Oilseed Rape (oilseed rape; 125 g ai/ha): 100
Plant response rating: Oilseed Rape (oilseed rape; 250 g ai/ha): 100
Plant response rating: Field Violet (field violet; 31 g ai/ha): 70
Plant response rating: Field Violet (field violet; 62 g ai/ha): 75
Plant response rating: Field Violet (field violet; 125 g ai/ha): 90
Plant response rating: Field Violet (field violet; 250 g ai/ha): 100
Plant response rating (scale of 0 to 100 where 0 is no effect and 100 is complete control) (blackgrass; 125 g ai/ha): 90
Plant response rating (scale of 0 to 100 where 0 is no effect and 100 is complete control) (blackgrass; 250 g ai/ha): 90
Blackgrass plant response rating (0 to 100) (blackgrass; 31 g ai/ha): 90
Blackgrass plant response rating (0 to 100) (blackgrass; 62 g ai/ha): 90
Plant response rating: Oat, Wild (oat, wild; 62 g ai/ha): 40
Plant response rating: Oat, Wild (oat, wild; 125 g ai/ha): 70
Plant response rating: Oat, Wild (oat, wild; 250 g ai/ha): 80
Plant response rating: Barley, Winter (barley, winter; 31 g ai/ha): 5
Plant response rating: Barley, Winter (barley, winter; 62 g ai/ha): 25
Plant response rating: Barley, Winter (barley, winter; 125 g ai/ha): 35
Plant response rating: Barley, Winter (barley, winter; 250 g ai/ha): 45
Plant response rating: Barley, Spring (barley, spring; 31 g ai/ha): 5
Plant response rating: Barley, Spring (barley, spring; 62 g ai/ha): 20
Plant response rating: Barley, Spring (barley, spring; 125 g ai/ha): 45
Plant response rating: Barley, Spring (barley, spring; 250 g ai/ha): 60
Plant response rating: Windgrass (windgrass; 62 g ai/ha): 90
Plant response rating: Windgrass (windgrass; 125 g ai/ha): 100
Plant response rating: Windgrass (windgrass; 250 g ai/ha): 100

COc1nc(-c2ccc(F)cc2)nn1Cc1ccnc(C(F)(F)F)c1 [Compound 9, 4-[[3-(4-fluorophenyl)-5-methoxy-1H-1,2,4-triazol-1-yl]methyl]-2-(trifluoromethyl)pyridine]
plant injury at 125 g/ha (wheat): 0%
plant injury at 500 g/ha (wheat): 50%
Plant response rating (scale of 0 to 100 where 0 is no effect and 100 is complete control) (blackgrass; 125 g ai/ha): 90
Plant response rating (scale of 0 to 100 where 0 is no effect and 100 is complete control) (blackgrass; 250 g ai/ha): 90
Blackgrass plant response rating (0 to 100) (blackgrass; 31 g ai/ha): 5
Blackgrass plant response rating (0 to 100) (blackgrass; 62 g ai/ha): 85

Cn1nc(-c2ccc(F)cc2)nc1C(O)c1ccnc(C(F)(F)F)c1 (stereo not drawn) [Compound 14, α-[3-(4-fluorophenyl)-1-methyl-1H-1,2,4-triazol-5-yl]-2-(trifluoromethyl)-4-pyridinemethanol]
plant injury at 125 g/ha (wheat): 0%
plant injury at 500 g/ha (wheat): 0%

CCn1nc(-c2ccc(F)cc2)nc1C(O)c1ccnc(C(F)(F)F)c1 (stereo not drawn) [Compound 15, α-[1-Ethyl-3-(4-fluorophenyl)-1H-1,2,4-triazol-5-yl]-2-(trifluoromethyl)-4-pyridinemethanol]
plant injury at 125 g/ha (wheat): 0%
plant injury at 500 g/ha (wheat): 0%

CCCn1nc(-c2ccc(F)cc2)nc1Cc1ccnc(C(F)(F)F)c1 [Compound 17, 4-[[3-(4-fluorophenyl)-1-propyl-1H-1,2,4-triazol-5-yl]methyl]-2-(trifluoromethyl)pyridine]
plant injury at 125 g/ha (wheat): 30%
plant injury at 500 g/ha (wheat): 70%

CCn1nc(-c2ccc(F)cc2)nc1C(=O)c1ccnc(C(F)(F)F)c1 [Compound 19, [1-ethyl-3-(4-fluorophenyl)-1H-1,2,4-triazol-5-yl][2-(trifluoromethyl)-4-pyridinyl]methanone]
plant injury at 125 g/ha (wheat): 0%
plant injury at 500 g/ha (wheat): 0%

COc1nc(-c2ccc(C(F)(F)F)cc2)nn1Cc1ccnc(C(F)(F)F)c1 [Compound 25]
Plant response rating, Kochia (kochia; 31 g ai/ha): 20
Plant response rating, Kochia (kochia; 125 g ai/ha): 80

CCOc1nc(-c2ccc(Cl)cc2)nn1Cc1ccnc(C(F)(F)F)c1 [Compound 26]
Plant response rating, Kochia (kochia; 31 g ai/ha): 60
Plant response rating, Kochia (kochia; 125 g ai/ha): 90

CS(=O)(=O)c1nc(-c2ccc(F)cc2)nn1Cc1ccnc(C(F)(F)F)c1 [Compound 29, 4-[[3-(4-fluorophenyl)-5-(methylsulfonyl)-1H-1,2,4-triazole-1-yl]methyl]-2-(trifluoromethyl)pyridine]
plant injury at 125 g/ha (wheat): 0%
plant injury at 500 g/ha (wheat): 0%

COc1nc(-c2ccccc2)nn1Cc1ccnc(C(F)(F)F)c1 [Compound 32]
Plant response rating (scale of 0 to 100 where 0 is no effect and 100 is complete control) (blackgrass; 125 g ai/ha): 10
Plant response rating (scale of 0 to 100 where 0 is no effect and 100 is complete control) (blackgrass; 250 g ai/ha): 90
Blackgrass plant response rating (0 to 100) (blackgrass; 31 g ai/ha): 0
Blackgrass plant response rating (0 to 100) (blackgrass; 62 g ai/ha): 0
Plant response rating, Kochia (kochia; 125 g ai/ha): 100
Plant response rating, Kochia (kochia; 500 g ai/ha, approx. 10 d): 100

CCCOc1nc(-c2ccccc2)nn1Cc1ccnc(C(F)(F)F)c1 [Compound 33]
Plant response rating, Kochia (kochia; 125 g ai/ha): 60
Plant response rating, Kochia (kochia; 500 g ai/ha, approx. 10 d): 90
